Experimental findings from patent US20260159520A1, “HETEROBIFUNCTIONAL COMPOUNDS AND METHODS OF TREATING DISEASE” (Halda Therapeutics OpCo, Inc., priority 2022, published 2026) are described below.

What all share (type): cell-based
For one test, the system named is VCaP cells. The test can be described thus: Cellular growth inhibition assay for VCaP cells. To be noted: Homo sapiens, 72 hours, CellTiter-Glo 2.0. As for the experimental part: VCaP cells were purchased from American Type Cell Culture (ATCC Cat #CRL2876) and then seeded on poly-D-lysine coated, black clear-bottom 384-well plates at 5000/well in 25 μL Dulbecco's Modified Eagle Medium (DMEM) supplemented with 10% w/w Fetal bovine serum (FBS) and 1% w/w Pen-Strep. Pen-Strep is a commercially available mixture of penicillin G and streptomycin, which is used in mammalian cell culture media to prevent bacterial contamination. Dulbecco's Modified Eagle Medium (DMEM) supplemented with 10% w/w fetal bovine serum (FBS) and 1% w/w Pen-Strep is herein referred to as Treatment Medium. Following seeding of cells in the plates, the plates were spun at 300×g for 30 seconds, then equilibrated to room temperature for 30 minutes, and then deposited in a humidified tissue culture incubator maintained at 37° C. with 5% CO2.
(§1) At 24 hours after seeding of the cells, dilutions of test compound were prepared in DMSO and dissolved in Treatment Medium, to achieve a final DMSO concentration of 0.5% w/w, thereby providing the Test Compound Solution. A 25 μL aliquot of the Test Compound Solution was added to cells in the well plates. An equal volume of a solution containing DMSO and Treatment Medium was used as a negative control. Following treatment of cells with Test Compound Solution or said equal volume of a solution containing DMSO and Treatment Medium, the plates were spun at 300×g for 30 seconds, and then left in an incubator for 72 hours.
At the end of the treatment duration, cell viability was quantified with CellTiter-Glo 2.0 reagent (Promega Cat #G9243). For this purpose, plates were equilibrated to room temperature for 30 minutes, and then 25 μL of CellTiter-Glo 2.0 reagent was added to cells in the plate wells. Plates were then agitated on a shaker for two minutes at 500 rpm and subsequently incubated at room temperature for 10 minutes. Following incubation, the plates were spun at 3000×g for 30 seconds, then sealed with an optical adhesive cover, and luminescence readings were measured with an EnVision Plate Reader. Data was normalized using zero luminescence for baseline.
A four-parameter non-linear regression curve fit was applied to dose-response data in GraphPad Prism data analysis software to determine the half-maximal growth inhibitory concentration (GI50) for each test compound.
On the technique in general: Cellular ATP, detected with luciferase, serves as a proxy for viable cell number.

The subject of test [1] is T-Rex 293 cell line SC3 cells lacking increased expression of androgen receptor protein. The test can be described thus: Cellular growth inhibition, T-Rex 293 SC3 cells without doxycycline. To be noted: not exposed to doxycycline, 72 hours, CellTiter-Glo 2.0. The method, then: (§2) The following types of cells were prepared for this experiment: (i) a T-Rex 293 cell line having increased expression of androgen receptor protein due to exposure to doxycycline and (ii) a T-Rex 293 cell line lacking increased expression of androgen receptor protein. Ability of the test compounds to inhibit proliferation of the foregoing cell types was evaluated according to the procedures set forth below.
(§3) The doxycycline-inducible androgen receptor protein expressing cell line was established using the following protocol: T-Rex 293 cells were purchased from Invitrogen (Cat #R71007) and transfected using Lipofectamine 2000 with the wild-type androgen receptor protein sequence cloned into the pcDNA4/TO vector. Transfected cells were selected using 400 μg/mL Zeocin (Invitrogen Cat #R25001). Following selection, single clones were raised and maintained in Dulbecco's Modified Eagle Medium (DMEM) supplemented with 10% w/w Tetracycline-free fetal bovine serum (FBS) and 250 μg/mL Zeocin. Clones were analyzed for expression of androgen receptor protein in the presence and absence of 10 ng/mL doxycycline (Sigma Cat #D9891), and a single doxycycline-inducible clone (hereinafter “SC3”) was selected for use in downstream assays.
(§4) The SC3 cells were seeded on poly-D-lysine coated, black clear-bottom 384-well plates at 2500/well, in 25 μL Phenol Red Free Dulbecco's Modified Eagle Medium (DMEM) supplemented with 10% w/w charcoal-dextran treated fetal bovine serum (FBS) and 1% w/w pen-strep, with or without 10 ng/mL doxycycline. Pen-Strep is a commercially available mixture of penicillin G and streptomycin, which is used in mammalian cell culture media to prevent bacterial contamination. Phenol Red Free Dulbecco's Modified Eagle Medium (DMEM) supplemented with 10% w/w charcoal-dextran treated fetal bovine serum (FBS) and 1% w/w pen-strep, with or without 10 ng/mL doxycycline is herein referred to as Treatment Medium. Following seeding of cells in the plates, the plates were spun at 300×g for 30 seconds, then equilibrated to room temperature for 30 minutes, and then deposited in a humidified tissue culture incubator maintained at 37° C. with 5% CO2.
as §1
(§5) At the end of the treatment duration, cell viability was quantified with CellTiter-Glo 2.0 reagent (Promega Cat #G9243). For this purpose, plates were equilibrated to room temperature for 30 minutes, and then 25 μL of CellTiter-Glo 2.0 reagent was added to cells in the plate wells. Plates were then agitated on a shaker for two minutes at 500 rpm and subsequently incubated at room temperature for 10 minutes. Following incubation, the plates were spun at 3000×g for 30 seconds, then sealed with an optical adhesive cover, and luminescence readings were measured with an EnVision Plate Reader.
(§6) Data was normalized using zero luminescence for baseline. A four-parameter non-linear regression curve fit was applied to dose-response data in GraphPad Prism data analysis software to determine the half-maximal growth inhibitory concentration (GI50) for each test compound.

A further test concerns T47D cells. The test can be described thus: Cellular growth inhibition assay for T47D cells. To be noted: Homo sapiens, 72 hours, CellTiter-Glo 2.0. As for the experimental part: T47D cells were purchased from American Type Cell Culture (ATCC Cat #HTB-133) and then seeded on poly-D-lysine coated, black clear-bottom 384-well plates at 3000/well in 25 μL Dulbecco's Modified Eagle Medium (DMEM) supplemented with 10% w/w Fetal bovine serum (FBS), 0.2 units/mL recombinant human insulin (Gibco Cat #12585014), and 1% w/w Pen-Strep. Pen-Strep is a commercially available mixture of penicillin G and streptomycin, which is used in mammalian cell culture media to prevent bacterial contamination. Dulbecco's Modified Eagle Medium (DMEM) supplemented with 10% w/w fetal bovine serum (FBS), 0.2 units/mL recombinant human insulin, and 1% w/w Pen-Strep is herein referred to as Treatment Medium. Following seeding of cells in the plates, the plates were spun at 300×g for 30 seconds, then equilibrated to room temperature for 30 minutes, and then deposited in a humidified tissue culture incubator maintained at 37° C. with 5% CO2.
as §1
as §5, with “Reader (Perkin Elmer).” for “Reader.”
as §6

The test system of test [2] is T-Rex 293 cell line SC3 cells having increased expression of androgen receptor protein. The test can be described thus: Cellular growth inhibition, T-Rex 293 SC3 cells with doxycycline (increased androgen receptor expression). The following applies: with 10 ng/mL doxycycline (increased androgen receptor), 72 hours, CellTiter-Glo 2.0. As for the experimental part:
as §2, §3, §4, §1, §5, §6

Each structure is given as a SMILES string.

Broadly, the GI50 is the concentration that inhibits growth by half. A lower GI50 goes with greater sensitivity of the cells. Regarding `CCc1cnn2c(NCc3ccc(N4CCN(C5CCN(C6CN(c7ncc(C(=O)N[C@H]8C(C)(C)[C@H](Oc9ccc(C#N)c(Cl)c9)C8(C)C)cn7)C6)CC5)CC4)nc3)cc(N3CCCC[C@H]3CCO)nc12` [Compound I-79], the GI50 in the test on VCaP cells is below 0.1 µM; in test [1], below 0.1 µM; in the test on T47D cells, below 0.5 µM; in test [2], below 0.1 µM.

On to `CCc1cnn2c(NCc3ccc(N4CCC(OCCC5CCN(c6ncc(C(=O)N[C@H]7C(C)(C)[C@H](Oc8ccc(C#N)c(Cl)c8)C7(C)C)cn6)CC5)C4)nc3)cc(N3CCCC[C@H]3CCO)nc12` (stereo partly drawn) [Compound I-80], for which the GI50 is 0.1 to 1 µM with VCaP cells, above 3.5 µM in test [1], 0.5 to 1.5 µM in the test with T47D cells and below 0.1 µM in test [2].

Turning to `CCc1cnn2c(NCc3ccc(N(C)CCCN4CCC(C5CN(c6ncc(C(=O)N[C@H]7C(C)(C)[C@H](Oc8ccc(C#N)c(Cl)c8)C7(C)C)cn6)C5)CC4)nc3)cc(N3CCCC[C@H]3CCO)nc12` [Compound I-82], the GI50 in the test with VCaP cells lay in the range of 0.1 to 1 µM; in test [1] it was 0.1 to 1 µM; in the test with T47D cells, 0.5 to 1.5 µM; in test [2] it was 0.1 to 1 µM.

Turning to `CCc1cnn2c(NCc3ccc(OCCOC4CCN(c5ncc(C(=O)N[C@H]6C(C)(C)[C@H](Oc7ccc(C#N)c(Cl)c7)C6(C)C)cn5)CC4)nc3)cc(N3CCCC(F)(F)C3)nc12` [Compound I-84, N-[3-(3-chloro-4-cyano-phenoxy)-2,2,4,4-tetramethyl-cyclobutyl]-2-[4-[2-[[5-[[[5-(3,3-difluoro-1-piperidyl)-3-ethyl-pyrazolo[1,5-a]pyrimidin-7-yl]amino]methyl]-2-pyridyl]oxy]ethoxy]-1-piperidyl]pyrimidine-5-carboxamide], the GI50 was above 3.5 µM in the test with VCaP cells, above 3.5 µM in test [1], 1.5 to 3 µM in the test on T47D cells and 0.1 to 1 µM in test [2].

As to `CCc1cnn2c(NCc3ccc(N(C)CCOC4CCN(C5CN(c6ncc(C(=O)N[C@H]7C(C)(C)[C@H](Oc8ccc(C#N)c(Cl)c8)C7(C)C)cn6)C5)CC4)nc3)cc(N3CCCC[C@H]3CCO)nc12` [Compound I-85], the GI50 with VCaP cells is 0.1 to 1 µM; in test [1], 0.1 to 1 µM; in the test on T47D cells it was below 0.5 µM; in test [2] it was 0.1 to 1 µM.

In the case of `CC1(C)[C@H](NC(=O)c2cnc(N3CCC(OCCOCCOCCN4C/C=C/CCOc5cccc(c5)-c5ccnc(n5)Nc5cccc(c5)C4)CC3)nc2)C(C)(C)[C@H]1Oc1ccc(C#N)c(Cl)c1` [Compound I-89], the GI50 was above 3.5 µM with VCaP cells, above 3.5 µM in test [1], above 3 µM in the test with T47D cells and 0.1 to 1 µM in test [2].

Turning to `CCc1cnn2c(NCc3ccc(OCCN4CCN(CC5CCN(c6ncc(C(=O)N[C@H]7C(C)(C)[C@H](Oc8ccc(C#N)c(Cl)c8)C7(C)C)cn6)CC5)CC4)nc3)cc(N3CCCC(F)(F)C3)nc12` [Compound I-91], the GI50 in the test with VCaP cells was above 3.5 µM; in test [1], above 3.5 µM; in the test with T47D cells it was 0.5 to 1.5 µM; in test [2], 0.1 to 1 µM.

Consider `CCc1cnn2c(NCc3ccc(OCCCN4CCN(CC5CCN(c6ncc(C(=O)N[C@H]7C(C)(C)[C@H](Oc8ccc(C#N)c(Cl)c8)C7(C)C)cn6)CC5)CC4)nc3)cc(N3CCCC(F)(F)C3)nc12` [Compound I-92], for which the GI50 in the test on VCaP cells lay in the range of 0.1 to 1 µM; in test [1], 1 to 3.5 µM; in the test on T47D cells it was 0.5 to 1.5 µM; in test [2] it was 0.1 to 1 µM.

As to `CCc1cnn2c(NCc3ccc(OCCCCN4CCN(CC5CCN(c6ncc(C(=O)N[C@H]7C(C)(C)[C@H](Oc8ccc(C#N)c(Cl)c8)C7(C)C)cn6)CC5)CC4)nc3)cc(N3CCCC(F)(F)C3)nc12` [Compound I-93], the GI50 was above 3.5 µM with VCaP cells, above 3.5 µM in test [1], 0.5 to 1.5 µM in the test on T47D cells and 0.1 to 1 µM in test [2].
